In patent US8778939B2, “Compounds” (Glaxo Group Limited, priority 2009, dated 2014):

What was measured:
Format in all cases: biochemical
[1] = target: T1, 6His-Tev-LRRK2 (1326-2527) (Homo sapiens, UniProt Q5S007); assay: LRRK2 peptide substrate assay; conditions: Biotin-LRRKtide peptide substrate, ATP at Km; read-out: pIC50 in the LRRK2 peptide substrate assay (converted)
T1 construct: A LRRK2 cDNA encoding residues 1326-2527 was received from Dundee University; made in house; host or cells: Spodoptera frugiperda (Sf9) insect cells, baculovirus
T1 sequence (Q5S007 1326-2527): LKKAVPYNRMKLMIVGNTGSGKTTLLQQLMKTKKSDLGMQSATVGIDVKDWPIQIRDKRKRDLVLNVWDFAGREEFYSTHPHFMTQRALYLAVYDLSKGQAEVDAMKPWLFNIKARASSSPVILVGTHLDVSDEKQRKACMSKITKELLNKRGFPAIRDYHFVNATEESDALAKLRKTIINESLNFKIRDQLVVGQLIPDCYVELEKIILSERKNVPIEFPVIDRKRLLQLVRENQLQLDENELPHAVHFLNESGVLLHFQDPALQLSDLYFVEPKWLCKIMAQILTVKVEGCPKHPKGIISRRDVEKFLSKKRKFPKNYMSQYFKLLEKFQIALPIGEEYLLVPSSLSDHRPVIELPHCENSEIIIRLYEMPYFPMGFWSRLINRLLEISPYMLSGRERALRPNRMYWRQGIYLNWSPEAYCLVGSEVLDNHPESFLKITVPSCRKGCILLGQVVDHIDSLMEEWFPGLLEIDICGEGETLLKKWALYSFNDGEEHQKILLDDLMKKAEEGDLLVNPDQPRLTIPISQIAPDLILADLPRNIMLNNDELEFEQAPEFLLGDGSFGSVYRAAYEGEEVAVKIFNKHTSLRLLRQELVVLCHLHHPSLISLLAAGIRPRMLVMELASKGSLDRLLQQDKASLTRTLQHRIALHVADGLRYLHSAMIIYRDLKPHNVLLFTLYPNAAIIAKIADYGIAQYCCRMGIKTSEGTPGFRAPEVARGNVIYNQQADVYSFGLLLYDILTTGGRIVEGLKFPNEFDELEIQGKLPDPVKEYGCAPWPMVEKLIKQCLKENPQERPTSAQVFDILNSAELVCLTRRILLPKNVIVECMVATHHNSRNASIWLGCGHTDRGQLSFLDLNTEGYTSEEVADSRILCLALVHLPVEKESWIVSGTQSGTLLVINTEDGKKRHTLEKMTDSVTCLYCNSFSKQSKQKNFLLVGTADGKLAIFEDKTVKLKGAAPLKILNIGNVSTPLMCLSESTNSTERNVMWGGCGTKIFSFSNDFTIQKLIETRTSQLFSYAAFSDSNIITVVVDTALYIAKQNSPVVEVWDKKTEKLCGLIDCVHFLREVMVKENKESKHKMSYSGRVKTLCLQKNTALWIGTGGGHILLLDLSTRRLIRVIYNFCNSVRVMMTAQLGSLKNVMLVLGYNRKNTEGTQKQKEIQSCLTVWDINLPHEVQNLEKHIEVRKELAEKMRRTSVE
In short: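 Recombinant 6His-Tev-LRRK2 (1326-2527), 80 nM in enzyme solution, in pH 7.2 Hepes/MgCl2 buffer with DTT; compounds in 1:4 serial dilution from 30 μM top final. Reaction 1-2 h at room temperature, stopped with EDTA; phospho-moesin (Thr558) antibody with Eu/APC TR-FRET detection after 2 h (ex 330, em 620/665 nm).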

[2] = target: T1, 6His-Tev-LRRK2 (1326-2527); assay: LRRK2 AlphaScreen desensitised protein substrate assay; conditions: excess of ATP present (2 mM ATP); read-out: pIC50 in the LRRK2 alphascreen desensitised protein substrate assay (converted)
In short: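 Purified 6His-Tev-LRRK2 (1326-2527), 80 nM in enzyme solution, in pH 7.2 Hepes buffer with MgCl2 and DTT; compound 1:4 dilutions, top final 30 μM. ATP 2 mM in substrate solution, 20 min at room temperature. Phospho-ERM (Thr567/564/558) detected by AlphaScreen.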

[3] = target: T1, 6His-Tev-LRRK2 (1326-2527); assay: LRRK2 AlphaScreen protein substrate assay; conditions: GST-PS-Moesin (400-577) substrate, ATP at Km; read-out: pIC50 in the LRRK2 alphascreen protein substrate assay (converted)
Experimental: a) 100 nl of a 1:4 serial dilution of test compound with a top final assay concentration of 30 μM is added to certain wells in a low volume 384 well black plate. 100 nl of DMSO is used in certain wells as controls.
b) 3 μl enzyme solution (80 nM purified recombinant 6His-Tev-LRRK2 (1326-2527) in assay buffer: 50 mM Hepes (pH 7.2), 10 mM MgCl2, 150 mM NaCl, 5% glycerol, 0.0025% triton X-100 and 1 mM DTT) is added to certain wells.
Plates are then incubated for a further 1-2 hours at room temperature (incubation time varies depending upon rate and linearity of reaction with differing enzyme batches).
d) 6 μl detection solution (1:250 dilution of AlphaLisa Protein A Acceptor beads (PerkinElmer), 1:64 dilution of AlphaLisa Gluthathione Donor beads (PerkinElmer) and 1:600 dilution (dilution determined on a batch to batch basis) of Phospho-Ezrin (Thr567)/Radixin (Thr564)/Moesin (Thr558) Polyclonal Antibody (New England Biolabs) in a buffer: 50 mM Hepes (pH 7.5), 250 mM NaCl, 60 mM EDTA, 1% PEG and 0.01% Brij 35) is added to each well. Plates are then incubated for a further 2 hours at room temperature in the dark before reading on an EnVision™ plate reader with AlphaScreen HTS turbo option module and AlphaScreen settings. Data is analysed using ActivityBase software (IDBS).

Question: What does the source list for `CC(C)c1ccc(OCc2ccccc2)c(C(=O)Nc2cccnc2)c1` [Example 1, 5-(1-Methylethyl)-2-[(phenylmethyl)oxy]-N-3-pyridinylbenzamide]?
Answer: IC50 [1]: ≤ 0.1 µM; IC50 [2]: ≤ 20 µM; IC50 [3]: ≤ 0.1 µM

Question: How did the IC50 [1] turn out when `O=C(Nc1cccnc1)c1cc(Br)ccc1OCc1ccccc1` [Example 2, 5-Bromo-2-[(phenylmethyl)oxy]-N-3-Pyridinylbenzamide] was run?
Answer: Its IC50 is ≤ 0.1 µM.

Question: And the IC50 [2]?
Answer: The IC50 was ≤ 20 µM.

Question: What about the IC50 [3] of the same molecule?
Answer: The IC50 was ≤ 0.1 µM.

Question: Which IC50 [1] does the source give for `N#Cc1ccc(OCc2ccccc2)c(C(=O)Nc2cccnc2)c1` [Example 8, 5-Cyano-2-[(phenylmethyl)oxy]-N-3-pyridinylbenzamide] here?
Answer: Its IC50 is ≤ 0.1 µM.

Question: And the IC50 [2]?
Answer: The IC50 was ≤ 20 µM.

Question: And the IC50 [3]?
Answer: Its IC50 is ≤ 0.1 µM.

Question: How did the IC50 [1] turn out when `O=C(Nc1cccnc1)c1cc(Br)ccc1OCc1ccc(Cl)cc1` [Example 9, 5-Bromo-2-{[(4-chlorophenyl)methyl]oxy}-N-3-pyridinylbenzamide] was run?
Answer: Its IC50 is ≤ 0.1 µM.

Question: What about the IC50 [2] of the same molecule?
Answer: Its IC50 is ≤ 20 µM.

Question: And the IC50 [3]?
Answer: The IC50 was ≤ 0.1 µM.

Question: With `O=C(Nc1cccnc1)c1cc(Br)ccc1OCc1cccc(Cl)c1` [Example 13, 5-Bromo-2-{[(3-chlorophenyl)methyl]oxy}-N-3-pyridinylbenzamide] as the molecule, how does the IC50 [1] read?
Answer: Its IC50 is ≤ 0.1 µM.

Question: And the IC50 [2]?
Answer: The IC50 was > 25.1 µM.

Question: And the IC50 [3]?
Answer: Its IC50 is ≤ 0.1 µM.

Question: For `N#Cc1cccc(COc2ccc(Br)cc2C(=O)Nc2cccnc2)c1` [Example 15, 5-Bromo-2-{[(3-cyanophenyl)methyl]oxy}-N-3-pyridinylbenzamide], which IC50 [1] is on record?
Answer: Its IC50 is ≤ 0.1 µM.

Question: What about the IC50 [2] of the same molecule?
Answer: The IC50 was > 25.1 µM.

Question: What about the IC50 [3] of the same molecule?
Answer: Its IC50 is ≤ 0.1 µM.

Question: Which IC50 [2] does the source give for `COc1cccc(COc2ccc(Br)cc2C(=O)Nc2cccnc2)c1` [Example 18, 5-Bromo-2-({[3-(methyloxy)phenyl]methyl}oxy)-N-3-pyridinylbenzamide] here?
Answer: Its IC50 is > 25.1 µM.

Question: What about the IC50 [3] of the same molecule?
Answer: Its IC50 is ≤ 7.94 µM.

Question: How did the IC50 [2] turn out when `CCc1cccc(NC(=O)c2cc(Br)ccc2OCc2ccccc2)c1` [Example 20, 5-Bromo-N-(3-ethylphenyl)-2-[(phenylmethyl)oxy]benzamide] was run?
Answer: The IC50 was > 25.1 µM.

Question: And the IC50 [3]?
Answer: Its IC50 is ≤ 7.94 µM.

Question: How did the IC50 [2] turn out when `COc1ccccc1COc1ccc(Br)cc1C(=O)Nc1cccnc1` [Example 21, 5-Bromo-2-({[2-(methyloxy)phenyl]methyl}oxy)-N-3-pyridinylbenzamide] was run?
Answer: The IC50 was ≤ 20 µM.

Question: What about the IC50 [3] of the same molecule?
Answer: Its IC50 is ≤ 7.94 µM.

Question: Which results are given for `O=C(Nc1ccccn1)c1cc(Br)ccc1OCc1ccccc1` [Example 22, 5-Bromo-2-[(phenylmethyl)oxy]-N-2-pyridinylbenzamide]?
Answer: IC50 [2]: > 25.1 µM; IC50 [3]: > 25.1 µM

Question: Which IC50 [2] does the source give for `N#Cc1ccccc1COc1ccc(Br)cc1C(=O)Nc1cccnc1` [Example 23, 5-Bromo-2-{[(2-cyanophenyl)methyl]oxy}-N-3-pyridinylbenzamide] here?
Answer: Its IC50 is ≤ 20 µM.

Question: And the IC50 [3]?
Answer: The IC50 was ≤ 7.94 µM.

Question: `O=C(O)Cc1cccc(NC(=O)c2cc(Cl)ccc2OCc2ccccc2)c1` [Example 25, {3-[({5-Chloro-2-[(phenylmethyl)oxy]phenyl}carbonyl)amino]phenyl}acetic acid] was tested. Which IC50 [3] did it give?
Answer: The IC50 was ≤ 7.94 µM.

Question: How did the IC50 [2] turn out when `CNC(=O)c1cccc(NC(=O)c2cc(Br)ccc2OCc2ccccc2)c1` [Example 27, 5-Bromo-N-{3-[(methylamino)carbonyl]phenyl}-2-[(phenylmethyl)oxy]benzamide] was run?
Answer: Its IC50 is > 25.1 µM.

Question: What about the IC50 [3] of the same molecule?
Answer: The IC50 was ≤ 7.94 µM.

Question: For `O=C(Nc1cccnc1)c1cc(O)ccc1OCc1ccccc1` [Example 29, 5-Hydroxy-2-[(phenylmethyl)oxy]-N-3-pyridinylbenzamide], which IC50 [1] is on record?
Answer: The IC50 was ≤ 0.1 µM.

Question: What about the IC50 [2] of the same molecule?
Answer: Its IC50 is ≤ 20 µM.

Question: And the IC50 [3]?
Answer: Its IC50 is ≤ 0.1 µM.

Question: `CN(C)CCOc1ccc(OCc2ccccc2)c(C(=O)Nc2cccnc2)c1` [Example 30, 5-{[2-(Dimethylamino)ethyl]oxy}-2-[(phenylmethyl)oxy]-N-3-pyridinylbenzamide] was tested. Which IC50 [1] did it give?
Answer: The IC50 was ≤ 0.1 µM.

Question: What about the IC50 [2] of the same molecule?
Answer: Its IC50 is ≤ 20 µM.

Question: And the IC50 [3]?
Answer: Its IC50 is ≤ 0.1 µM.

Question: What does the source list for `CN1CCC(Oc2ccc(OCc3ccccc3)c(C(=O)Nc3cccnc3)c2)CC1` [Example 31, 5-[(1-Methyl-4-piperidinyl)oxy]-2-[(phenylmethyl)oxy]-N-3-pyridinylbenzamide]?
Answer: IC50 [1]: ≤ 0.1 µM; IC50 [2]: ≤ 20 µM; IC50 [3]: ≤ 0.1 µM

Question: Which results are given for `CN1CCN(c2ccc(OCc3ccccc3)c(C(=O)Nc3cccnc3)c2)CC1` [Example 32, 5-(4-Methyl-1-piperazinyl)-2-[(phenylmethyl)oxy]-N-3-pyridinylbenzamide]?
Answer: IC50 [1]: ≤ 0.01 µM; IC50 [2]: ≤ 20 µM; IC50 [3]: ≤ 0.1 µM

Question: What does the source list for `O=C(Nc1cccnc1)c1cc(N2CCCCC2)ccc1OCc1ccccc1` [Example 33, 2-[(Phenylmethyl)oxy]-5-(1-piperidinyl)-N-3-pyridinylbenzamide]?
Answer: IC50 [1]: ≤ 0.1 µM; IC50 [2]: ≤ 20 µM; IC50 [3]: ≤ 0.1 µM
